Publication PMC4760274, “Elongation factor 2 kinase promotes cell survival by inhibiting protein synthesis without inducing autophagy” (Cellular Signalling, 2016)
Peptide text beside a SMILES is read from it. * marks the point of attachment. Cbz = O=C(OCc1ccccc1)*

Experiments:
P-eEF2 in A549 cells = experiment: eEF2 phosphorylation in A549 cells (western blot); assay type: cell-based, human; conditions: for phosphorylation of eEF2: 16 h, 2DG 10 mM, rapamycin 100 nM, AZD8055 1 μM, MG132 10 μM, Fig. 2A
Procedure: (§1) After treatment, cells were lysed in ice-cold lysis buffer containing 1% (v/v) Triton X-100 (215680010, Acros Organics), 50 mM Tris (T6066-1KG, Sigma-Aldrich)–HCl (258148-2.5 L, Sigma-Aldrich) pH 7.4, 50 mM NaCl (BP358-212, Fisher Scientific), 0.2 mM EDTA (BP120-500, Fisher Scientific), 0.2 mM EGTA (E1102, Melford), 50 mM β-glycerophosphate (G9422, Sigma-Aldrich), 1 mM Na3VO4 (S6508, Sigma-Aldrich), 15 mM β-mercaptoethanol (125472500, Acros Organics) and 1 × protease inhibitor cocktail (5056489001, Roche). Lysates were spun at 16,000 × g for 10 min at 4 °C; the supernatants were kept and total protein concentration was quantified by Bradford assay following the manufacturer's instructions.
(§2) These procedures were performed as described previously.
Cells were then treated with 10 mM 2-deoxyglucose (2DG), rapamycin (100 nM), AZD8055 (1 μM) or MG132 (10 μM) for 16 h. Cells were then lysed and samples containing equal amounts of protein were analysed by western blot using the indicated antibodies. Values given below each lane show quantitation of the signal for LC3II, corrected for the actin signal from multiple experiments as in (A) expressed as LC3II normalized to actin, mean ± SEM (control cells without treatment = 1; n = 3). (B) A549 cells were cultured as in (A) to induce eEF2K knockdown. A549 cells were transiently transfected with the GST-BHMT construct and maintained in full media in the presence or absence of AZD8055 (1 μM) for 16 h, in the presence of leupeptin and E64d. GST-BHMT was precipitated with glutathione agarose from the whole cell extracts (bottom panel). Values given below show the quantitation of data from multiple experiments as in (B) expressed as the level of BHMT fragment normalized to the control without IPTG, mean ± SEM (control cells without treatment = 1; n = 3). Values given below each lane show quantitation of the signal for P-eEF2, corrected for the eEF2 signal from multiple experiments as in (B) expressed as P-eEF2 normalized to eEF2, mean ± SEM (control cells without treatment = 1; n = 3). (C) Cells were treated as described in Supplemental Fig. S3, visualized by confocal microscopy and the rate of autophagosome–lysosome fusion was measured according to green/red fluorescence ratio which reflect the percentage of unfused LC3. Scale bar = 20 μm. (D) Data quantification of C, data are presented as means ± SEM. (n = 5) ***P < 0.001, obtained by two-way ANOVA (Dunnett's test). (E) Untransfected A549 cells were treated with AZD8055 and BafA1 as described in A, cell lysates were collected at T0, 1 and 3 h for immunoblotting analysis. Values given below each lane show quantitation of the signal for LC3II, corrected for the LC3I signal from multiple experiments as in (E) expressed as LC3II normalized to LC3I, mean ± SEM (control cells without treatment = 1; n = 3).

P-eEF2 in HCT116 cells = experiment: eEF2 phosphorylation in HCT116 cells (western blot); assay type: cell-based, human; conditions: 24 h, CHX 5 μg/mL or Harringtonine 2 μg/mL, Fig. 1C
Procedure: as §1, §2
(§3) Fig. 1 eEF2K helps cells withstand glucose starvation. […] Cells were then lysed and samples containing equal amounts of protein were analysed by western blot using the indicated antibodies. Values given below each lane show quantitation of the signal for P-eEF2, corrected for the eEF2 signal from multiple experiments as in (A) expressed as P-eEF2 normalized to eEF2, mean ± SEM (control cells without treatment = 1; n = 3). […] Cells were lysed and caspase 3/7 activity was determined. […] Cell death was measured using CellTox Green® assay. […]

HCT116 cells = experiment: cell death markers in HCT116 cells (PARP cleavage, caspase 3/7 activity); assay type: cell-based, human; conditions: CHX 5 μg/mL or Harringtonine 2 μg/mL, Fig. 1B, C
Procedure: (§4) Caspase 3/7 assays (G8090, Promega) were performed according to the manufacturer's instructions. Briefly, 10,000 cells/well were plated overnight in a 96-well plate. Cells were treated as described in the figure legends for the indicated time period. To measure caspase 3/7 activity, 50 μL of caspase Glo 3/7 reagent was added to each well for 2 h with constant shaking at room temperature. Luminescence was measured using a BMG Labtech FLUOstar Optimi plate reader. Cytotoxicity was evaluated by CellTox Green® cytotoxicity assay (Promega). Briefly, 10,000 cells/well were plated overnight in a 96-well plate. Cells were treated as described in the figure legends for the indicated time period. Fluorescence was measured at 485–500 nmEx/520–530 nmEm using a BMG Labtech FLUOstar Optimi plate reader.
as §3

A549 cells = experiment: cell death of A549 cells (CellTox Green assay); assay type: cell-based, human; conditions: CHX 5 μg/mL
Procedure: as §4, §3

[1] = tested on: eEF2K levels in A549 cells; experiment: eEF2K protein levels in A549 cells (western blot); assay type: cell-based, human; conditions: CHX 5 μg/mL, 24 h, Fig. 1E
Procedure: as §1, §2, §3

P-eEF2 in WT MEFs = experiment: eEF2 phosphorylation in wild-type MEFs (western blot); assay type: cell-based, mouse; conditions: MK2206 5 μM or 2DG 10 mM, 24 h, Fig. 3A
Procedure: as §1, with “instructions. […]” for “instructions.”
Fig. 3 Role of eEF2K in autophagy in mouse embryonic fibroblasts (MEFs). […] Cells were then lysed and samples containing equal amounts of protein were analysed by western blot using the indicated antibodies. (B) Quantitation of data from multiple experiments as in (A) expressed as LC3II normalized to actin, mean ± SEM (control cells without treatment = 1; n = 3). […] Cells were then lysed and samples containing equal amounts of protein were analysed by western blot using the indicated antibodies. (D) Quantitation of data from multiple experiments as in (C) expressed as LC3II normalized to actin, mean ± SEM (control cells without treatment = 1; n = 3).

LC3II in MEFs = experiment: LC3 modification in MEFs (western blot); assay type: cell-based, mouse; conditions: 24 h; for ratio of the two forms of LC3: WT MEFs, MK2206 5 μM or 2DG 10 mM, Fig. 3A
Procedure: as §1, §2
Fig. 3 Role of eEF2K in autophagy in mouse embryonic fibroblasts (MEFs). Wildtype (WT) and eEF2K^−/− (KO) MEFs were treated, where indicated, with MK2206 (MK) (5 μM) or 10 mM 2-deoxyglucose (2DG) or in medium lacking glucose (− Glc) for 24 h. Cells were then lysed and samples containing equal amounts of protein were analysed by western blot using the indicated antibodies. (B) Quantitation of data from multiple experiments as in (A) expressed as LC3II normalized to actin, mean ± SEM (control cells without treatment = 1; n = 3). (C) Wild-type (WT) and eEF2K^−/− (KO) MEFs were treated, where indicated, with rapamycin (50 nM) or AZD8055 (0.5 μM) and/or chloroquine (10 μM) for 24 h. Cells were then lysed and samples containing equal amounts of protein were analysed by western blot using the indicated antibodies. (D) Quantitation of data from multiple experiments as in (C) expressed as LC3II normalized to actin, mean ± SEM (control cells without treatment = 1; n = 3).

[2] = tested on: mTORC1 signalling in HCT116 cells; experiment: mTORC1 signalling in HCT116 cells (western blot); assay type: cell-based, human; conditions: 24 h, Harringtonine 2 μg/mL, Fig. 1C
Procedure: as §1, §2, §3

LC3II in A549 cells = experiment: LC3 modification in A549 cells (western blot); assay type: cell-based, human; conditions: A549 with or without eEF2K knockdown; chloroquine 10 μM; 16 h; Fig. S1
Procedure: as §1, §2
Cells were then treated with 10 mM 2-deoxyglucose (2DG), rapamycin (100 nM), AZD8055 (1 μM) or MG132 (10 μM) for 16 h. Cells were then lysed and samples containing equal amounts of protein were analysed by western blot using the indicated antibodies. Values given below each lane show quantitation of the signal for LC3II, corrected for the actin signal from multiple experiments as in (A) expressed as LC3II normalized to actin, mean ± SEM (control cells without treatment = 1; n = 3). (B) A549 cells were cultured as in (A) to induce eEF2K knockdown. […] (D) Data quantification of C, data are presented as means ± SEM. […]

[3] = tested on: GST-BHMT cleavage (autophagic flux) in A549 cells; experiment: GST-BHMT cleavage assay in A549 cells; assay type: cell-based, human; conditions: chloroquine, data not shown

Row | SMILES | phosphorylation of eEF2 (P-eEF2 in A549 cells) | effect on eEF2 phosphorylation (p-eEF2) (P-eEF2 in HCT116 cells) | cell survival in cells starved of glucose and treated with eEF2K inhibitor JAN-849 (HCT116 cells) | level of phosphorylation of eEF2 (P-eEF2 in WT MEFs) | ratio of the two forms of LC3 (LC3II in MEFs) | also measured
1 | CC(C)C[C@@H](C=O)NC(=O)[C@H](CC(C)C)NC(=O)[C@H](CC(C)C)NC(=O)OCc1ccccc1 [MG132] (Cbz-Leu-Leu-Leu-aldehyde) | induced the phosphorylation of eEF2 |  |  |  |  | 
2 | C[C@@H]1C[C@@H]([C@H](O)CC2CC(=O)NC(=O)C2)C(=O)[C@@H](C)C1 [CHX, cycloheximide] |  | modest decrease | restored cell survival |  |  | effect on cell survival under control conditions (A549 cells; A549): adverse effect; death induced by glucose starvation (A549 cells; A549 with eEF2K knockdown, 48 h, Fig. 1D): partially rescued; eEF2 phosphorylation (P-eEF2 in A549 cells; CHX 5 μg/mL, 24 h, Fig. 1E): decrease in eEF2 phosphorylation; levels of eEF2K [1]: decreased the levels of eEF2K
3 | NC1(c2ccc(-c3nc4ccn5c(=O)[nH]nc5c4cc3-c3ccccc3)cc2)CCC1 [MK2206] |  |  |  | increased the level of phosphorylation of eEF2 | shift in the ratio of the two forms of LC3 from the upper (LC3I) to the lower band | 
4 | COC(=O)C[C@](O)(CCC(C)(C)O)C(=O)O[C@@H]1C(OC)=C[C@]23CCCN2CCc2cc4c(cc2[C@H]13)OCO4 [Harringtonine] |  | no effect | restored cell survival |  |  | effect on mTORC1 signalling [2]: very little
5 | O=CC[C@@H](O)[C@H](O)[C@H](O)CO [2-DG, 2-deoxyglucose] | induced the phosphorylation of eEF2 |  |  | increased the level of phosphorylation of eEF2 | shift in the ratio of the two forms of LC3 from the upper (LC3I) to the lower band | 
6 | CCN(CC)CCCC(C)Nc1ccnc2cc(Cl)ccc12 (stereo not drawn) [chloroquine] |  |  |  |  |  | modified LC3 (LC3II in A549 cells): increased modified LC3; cleavage of GST-BHMT [3]: completely blocked; levels of modified LC3-II (LC3II in MEFs; MEFs treated with rapamycin (50 nM) or AZD8055 (0.5 μM), chloroquine 10 μM, Fig. 3C): increased the levels of modified LC3-II
